Assay results reported in patent US20260365647A1, “AKT1 MODULATORS” (Alterome Therapeutics, Inc., priority 2022, published 2026).

Target: T1, AKT1-E17K (Homo sapiens, UniProt P31749, E17K)
T1 construct: host or cells: HEK-293 (ATCC CRL-1573)
Assay: NanoBRET Target Engagement (TE) Assay
Assay type: cell-based
Outline: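 Live cells transiently expressing NanoLuc-AKT1 E17K fusion, incubated 2 h with tracer and compound before substrate plus extracellular NanoLuc inhibitor were added. BRET read at 450/600 nm; EC50 from variable-slope sigmoidal fit of tracer displacement.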

T1 sequence (P31749 whole entry E17K): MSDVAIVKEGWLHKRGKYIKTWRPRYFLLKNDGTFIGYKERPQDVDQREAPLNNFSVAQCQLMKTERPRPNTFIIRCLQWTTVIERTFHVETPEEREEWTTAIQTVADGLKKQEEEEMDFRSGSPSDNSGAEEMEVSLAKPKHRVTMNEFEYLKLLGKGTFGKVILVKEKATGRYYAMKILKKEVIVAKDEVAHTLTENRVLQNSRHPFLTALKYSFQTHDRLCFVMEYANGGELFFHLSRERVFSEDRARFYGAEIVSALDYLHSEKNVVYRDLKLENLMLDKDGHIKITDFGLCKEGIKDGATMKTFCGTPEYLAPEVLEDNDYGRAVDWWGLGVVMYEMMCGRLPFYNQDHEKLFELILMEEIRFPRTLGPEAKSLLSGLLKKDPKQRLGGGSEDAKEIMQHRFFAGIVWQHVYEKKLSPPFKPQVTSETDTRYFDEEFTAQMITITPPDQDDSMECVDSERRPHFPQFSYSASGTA

SMILES	IC50 [nM]
Nc1ncccc1-c1nc2ccc(N3CCOCC3)nc2n1-c1ccc(CN2CCC(NC(=O)c3ccc(C=O)c(O)c3)CC2)cc1 [Example 53, N-(1-(4-(2-(2-Aminopyridin-3-yl)-5-morpholino-3H-imidazo[4,5-b]pyridin-3-yl)benzyl)piperidin-4-yl)-4-formyl-3-hydroxybenzamide]	60 to 600
Nc1ncccc1-c1nc2ccc(-c3ccccc3)nc2n1-c1ccc(CN2CCCN(C(=O)c3ccc(C=O)c(O)c3)CC2)cc1 [Example 72, 4-(4-(4-(2-(2-Aminopyridin-3-yl)-5-phenyl-3H-imidazo[4,5-b]pyridin-3-yl)benzyl)-1,4-diazepane-1-carbonyl)-2-hydroxybenzaldehyde]	15 to 60
Nc1ncccc1-c1nc2ccc(N3CCOCC3)nc2n1-c1ccc(CN2CCN(C(=O)c3ccc(C=O)c(O)c3)CC2)cc1 [Example 33, 4-(4-(4-(2-(2-Aminopyridin-3-yl)-5-morpholino-3H-imidazo[4,5-b]pyridin-3-yl)benzyl)piperazine-1-carbonyl)-2-hydroxybenzaldehyde]	> 600
Nc1ncccc1-c1nc2ccc(-c3ccccc3)nc2n1-c1ccc(CN2CCN(c3ccc(O)c(C=O)c3)CC2)cc1 [Example 10, 5-(4-(4-(2-(2-aminopyridin-3-yl)-5-phenyl-3H-imidazo[4,5-b]pyridin-3-yl)benzyl)piperazin-1-yl)-2-hydroxybenzaldehyde]	60 to 600
Nc1ncccc1-c1nc2ccc(-c3ccc[nH]c3=O)nc2n1-c1ccc(CN2CCN(C(=O)c3ccc(C=O)c(O)c3)CC2)cc1 [Example 15, 4-(4-(4-(2-(2-Aminopyridin-3-yl)-5-(2-oxo-1,2-dihydropyridin-3-yl)-3H-imidazo[4,5-b]pyridin-3-yl)benzyl)piperazine-1-carbonyl)-2-hydroxybenzaldehyde]	> 600
Nc1ncccc1-c1nc2ccc(-c3ccccc3)nc2n1-c1ccc(CN2CC3(CC(NC(=O)c4ccc(O)c(C=O)c4)C3)C2)cc1 [Example 69, N-(2-(4-(2-(2-Aminopyridin-3-yl)-5-phenyl-3H-imidazo[4,5-b]pyridin-3-yl)benzyl)-2-azaspiro[3.3]heptan-6-yl)-3-formyl-4-hydroxybenzamide]	< 15
Nc1ncccc1-c1nc2ccc(-c3cccc(Cl)c3)nc2n1-c1ccc(CN2CCN(C(=O)c3ccc(O)c(C=O)c3)CC2)cc1 [Example 42, 5-(4-(4-(2-(2-Aminopyridin-3-yl)-5-(3-chlorophenyl)-3H-imidazo[4,5-b]pyridin-3-yl)benzyl)piperazine-1-carbonyl)-2-hydroxybenzaldehyde]	60 to 600
Nc1ncccc1-c1nc2ccc(-c3ccccc3)nc2n1-c1ccc(CN2CCN(C(=O)c3ccc(C=O)c(O)c3)CC2)cc1 [Example 6, 4-(4-(4-(2-(2-Aminopyridin-3-yl)-5-phenyl-3H-imidazo[4,5-b]pyridin-3-yl)benzyl)piperazine-1-carbonyl)-2-hydroxybenzaldehyde]	60 to 600
Nc1ncccc1-c1nc2ccc(-c3ccccc3)nc2n1-c1ccc(CN2CCC3(CC2)CN(C(=O)c2ccc(C=O)c(O)c2)C3)cc1 [Example 71, 4-(7-(4-(2-(2-Aminopyridin-3-yl)-5-phenyl-3H-imidazo[4,5-b]pyridin-3-yl)benzyl)-2,7-diazaspiro[3.5]nonane-2-carbonyl)-2-hydroxybenzaldehyde]	> 600
Nc1ncccc1-c1nc2ccc(-c3ccccc3)nc2n1-c1ccc(CN2CCC3(CC2)CCN(c2ccc(C=O)c(O)c2)CC3)cc1 [Example 78, 4-(9-(4-(2-(2-Aminopyridin-3-yl)-5-phenyl-3H-imidazo[4,5-b]pyridin-3-yl)benzyl)-3,9-diazaspiro[5.5]undecan-3-yl)-2-hydroxybenzaldehyde]	60 to 600
Nc1ncccc1-c1nc2ccc(N3CCOCC3)nc2n1-c1ccc(CN2CCC(NC(=O)c3ccc(O)c(C=O)c3)CC2)cc1 [Example 52, N-(1-(4-(2-(2-Aminopyridin-3-yl)-5-morpholino-3H-imidazo[4,5-b]pyridin-3-yl)benzyl)piperidin-4-yl)-3-formyl-4-hydroxybenzamide]	15 to 60
Nc1ncccc1-c1nc2ccc(-c3ccccc3)nc2n1-c1ccc(CN2CCN(c3ccc(C=O)c(O)c3F)CC2)cc1 [Example 26, 4-(4-(4-(2-(2-Aminopyridin-3-yl)-5-phenyl-3H-imidazo[4,5-b]pyridin-3-yl)benzyl)piperazin-1-yl)-3-fluoro-2-hydroxybenzaldehyde]	15 to 60
Nc1ncccc1-c1nc2cccnc2n1-c1ccc(CNC(=O)c2ccc(C=O)c(O)c2)cc1 [Example 3, N-(4-(2-(2-Aminopyridin-3-yl)-3H-imidazo[4,5-b]pyridin-3-yl)benzyl)-4-formyl-3-hydroxybenzamide]	> 600
Nc1ncccc1-c1nc2ccc(-c3ccccc3)nc2n1-c1ccc(CN2CCC(NC(=O)c3cccc(C=O)c3O)CC2)cc1 [Example 49, N-(1-(4-(2-(2-aminopyridin-3-yl)-5-phenyl-3H-imidazo[4,5-b]pyridin-3-yl)benzyl)piperidin-4-yl)-3-formyl-2-hydroxybenzamide]	15 to 60
N#Cc1ccccc1-c1ccc2nc(-c3cccnc3N)n(-c3ccc(CN4CCN(C(=O)c5ccc(C=O)c(O)c5)CC4)cc3)c2n1 [Example 37, 2-(2-(2-Aminopyridin-3-yl)-3-(4-((4-(4-formyl-3-hydroxybenzoyl)piperazin-1-yl)methyl)phenyl)-3H-imidazo[4,5-b]pyridin-5-yl)benzonitrile]	60 to 600
Nc1ncccc1-c1nc2ccc(-c3ccccc3)nc2n1-c1ccc(CN2CCC(Nc3cccc(O)c3C=O)CC2)cc1 [Example 51, 2-((1-(4-(2-(2-Aminopyridin-3-yl)-5-phenyl-3H-imidazo[4,5-b]pyridin-3-yl)benzyl)piperidin-4-yl)amino)-6-hydroxybenzaldehyde]	60 to 600

Now from value to compound:

IC50 [nM]	SMILES
60 to 600	Nc1ncccc1-c1nc2ccc(-c3ccccc3)nc2n1-c1ccc(CN2CCC3(CCN(c4ccc(O)c(C=O)c4)C3)C2)cc1 (stereo not drawn) [Example 83, 5-(7-(4-(2-(2-Aminopyridin-3-yl)-5-phenyl-3H-imidazo[4,5-b]pyridin-3-yl)benzyl)-2,7-diazaspiro[4.4]nonan-2-yl)-2-hydroxybenzaldehyde]
60 to 600	Nc1ncccc1-c1nc2ccc(-c3ccccc3)nc2n1-c1ccc(CN2C[C@@H]3CN(c4ccc(O)c(C=O)c4)C[C@@H]3C2)cc1 [Example 134, 5-((3aR,6aS)-5-(4-(2-(2-Aminopyridin-3-yl)-5-phenyl-3H-imidazo[4,5-b]pyridin-3-yl)benzyl)hexahydropyrrolo[3,4-c]pyrrol-2(1H)-yl)-2-hydroxybenzaldehyde]
60 to 600	Nc1ncccc1-c1nc2ccc(-c3ccccc3)nc2n1-c1ccc(CN2C[C@@H]3CN(C(=O)c4ccc(C=O)c(O)c4)C[C@@H]3C2)cc1 [Example 132, 4-((3aR,6aS)-5-(4-(2-(2-Aminopyridin-3-yl)-5-phenyl-3H-imidazo[4,5-b]pyridin-3-yl)benzyl)octahydropyrrolo[3,4-c]pyrrole-2-carbonyl)-2-hydroxybenzaldehyde]
> 600	Nc1ncccc1-c1nc2ccc(-c3ccc(Cl)cc3)nc2n1-c1ccc(CN2CCN(c3ccc(O)c(C=O)c3)CC2)cc1 [Example 149, 5-(4-(4-(2-(2-aminopyridin-3-yl)-5-(4-chlorophenyl)-3H-imidazo[4,5-b]pyridin-3-yl)benzyl)piperazin-1-yl)-2-hydroxybenzaldehyde]
60 to 600	Nc1ncccc1-c1nc2ccc(-c3ccccc3)nc2n1-c1ccc(CN2CCC3(CCN(c4ccc(C=O)c(O)c4)C3)C2)cc1 (stereo not drawn) [Example 82, 4-(7-(4-(2-(2-Aminopyridin-3-yl)-5-phenyl-3H-imidazo[4,5-b]pyridin-3-yl)benzyl)-2,7-diazaspiro[4.4]nonan-2-yl)-2-hydroxybenzaldehyde]
> 600	Nc1ncccc1-c1nc2ccc(C3=CCCCC3)nc2n1-c1ccc(CN2CCN(C(=O)c3ccc(C=O)c(O)c3)CC2)cc1 [Example 151, 4-(4-(4-(2-(2-aminopyridin-3-yl)-5-(cyclohex-1-en-1-yl)-3H-imidazo[4,5-b]pyridin-3-yl)benzyl)piperazine-1-carbonyl)-2-hydroxybenzaldehyde]
60 to 600	Nc1ncccc1-c1nc2ccc(-c3ccccc3Cl)nc2n1-c1ccc(CN2CCN(c3ccc(C=O)c(O)c3)CC2)cc1 [Example 145, 4-(4-(4-(2-(2-Aminopyridin-3-yl)-5-(2-chlorophenyl)-3H-imidazo[4,5-b]pyridin-3-yl)benzyl)piperazin-1-yl)-2-hydroxybenzaldehyde]
15 to 60	Nc1ncccc1-c1nc2ccc(-c3ccccc3)nc2n1-c1ccc(CN2CCC(Oc3ccc(C=O)c(O)c3)CC2)cc1 [Example 129, 4-((1-(4-(2-(2-Aminopyridin-3-yl)-5-phenyl-3H-imidazo[4,5-b]pyridin-3-yl)benzyl)piperidin-4-yl)oxy)-2-hydroxybenzaldehyde]
60 to 600	Nc1ncccc1-c1nc2ccc(-c3ccccc3)nc2n1-c1ccc(CN2C[C@@H]3C[C@H]2CN3c2ccc(C=O)c(O)c2)cc1 [Example 123, 4-((1S,4S)-5-(4-(2-(2-Aminopyridin-3-yl)-5-phenyl-3H-imidazo[4,5-b]pyridin-3-yl)benzyl)-2,5-diazabicyclo[2.2.1]heptan-2-yl)-2-hydroxybenzaldehyde]
60 to 600	Nc1ncccc1-c1nc2ccc(-c3ccccc3)nc2n1-c1ccc(CN2C3CCC2CN(C(=O)c2ccc(C=O)c(O)c2)C3)cc1 [Example 113, 4-(8-(4-(2-(2-Aminopyridin-3-yl)-5-phenyl-3H-imidazo[4,5-b]pyridin-3-yl)benzyl)-3,8-diazabicyclo[3.2.1]octane-3-carbonyl)-2-hydroxybenzaldehyde]
> 600	Nc1ncccc1-c1nc2ccc(-c3ccccc3F)nc2n1-c1ccc(CN2CCN(C(=O)c3ccc(C=O)c(O)c3)CC2)cc1 [Example 142, 4-(4-(4-(2-(2-Aminopyridin-3-yl)-5-(2-fluorophenyl)-3H-imidazo[4,5-b]pyridin-3-yl)benzyl)piperazine-1-carbonyl)-2-hydroxybenzaldehyde]
